The first test concerns the target BTK^C481S (Homo sapiens (Human), UniProt Q06187, C481S). Briefly: BTK enzyme activity assay. Conditions: 200 μM ATP; 33P-ATP, filter-binding method. The format is biochemical. The protocol:
The specific assay process of BTK enzyme activity assay is as follows: Buffer: 20 mM 2-[4-(2-hydroxyethyl)-1-piperazinyl]ethanesulfonic acid (Hepes) (pH 7.5), 10 mM magnesium chloride, 1 mM ethylenebis(oxyethylenenitrilo)tetraacetic acid (EGTA), 0.02% polyoxyethylene dodecyl ether (Brij35), 0.02 mg/mL BSA, 0.1 mM sodium vanadate (Na3VO4), 2 mM dithiothreitol (DTT), 1% DMSO, 200 μM adenosine triphosphate (ATP). • 1. The substrate was prepared in freshly prepared reaction buffer; • 2. The required cofactor was added to the above-mentioned substrate solution; • 3. The kinase BTK^C481S was added to the above-mentioned substrate solution and mixed well; • 4. The compound dissolved in DMSO was added to the kinase reaction mixture by Echo550 (Acoustic technology; nanoliter range), and the mixture was incubated at room temperature for 20 minutes; • 5. ^33P-ATP (specific radioactivity of 10 μCi/μL) was added to the reaction mixture to initiate the reaction; • 6. The mixture was incubated at room temperature for 2 hours; • 7. The radioactivity was detected by filter-binding method; • 8. Kinase activity data represented the percentage of remaining kinase activity in the assay sample compared to the vehicle (dimethyl sulfoxide) reaction.
Sequence of BTK^C481S (Q06187 whole entry C481S): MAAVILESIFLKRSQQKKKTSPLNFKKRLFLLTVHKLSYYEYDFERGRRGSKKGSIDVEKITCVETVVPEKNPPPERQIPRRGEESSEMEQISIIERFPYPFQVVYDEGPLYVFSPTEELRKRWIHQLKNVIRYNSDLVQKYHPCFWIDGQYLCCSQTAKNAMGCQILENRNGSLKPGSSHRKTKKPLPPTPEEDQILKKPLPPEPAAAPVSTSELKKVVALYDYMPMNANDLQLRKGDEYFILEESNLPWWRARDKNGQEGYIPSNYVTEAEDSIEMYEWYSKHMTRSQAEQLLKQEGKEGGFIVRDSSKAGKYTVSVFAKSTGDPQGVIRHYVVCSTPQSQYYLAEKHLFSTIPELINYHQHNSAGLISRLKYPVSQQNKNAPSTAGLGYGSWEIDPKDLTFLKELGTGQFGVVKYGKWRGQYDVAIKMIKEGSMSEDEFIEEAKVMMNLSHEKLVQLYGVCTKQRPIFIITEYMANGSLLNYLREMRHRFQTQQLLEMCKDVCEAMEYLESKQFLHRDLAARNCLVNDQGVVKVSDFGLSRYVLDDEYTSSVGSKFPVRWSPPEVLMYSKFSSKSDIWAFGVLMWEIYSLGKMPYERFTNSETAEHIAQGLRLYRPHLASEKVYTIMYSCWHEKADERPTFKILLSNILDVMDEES
Compound `N#C[C@@H]1CC[C@@H](Nc2ncnc3[nH]cc(C(=O)c4ccc(Oc5ccccc5)cc4Cl)c23)CO1` [Compound 5] gave an IC50 of 10.7 nM.
In the case of `O=C(c1ccc(Oc2ccccc2)cc1Cl)c1c[nH]c2ncnc(N[C@H]3CO[C@H](CO)C[C@H]3OCCO)c12` [Compound 8], the IC50 came out at 8.9 nM.
For `CO[C@@H]1C[C@@H](CO)OC[C@@H]1Nc1ncnc2[nH]cc(C(=O)c3ccc(Oc4ccccc4F)cc3Cl)c12` [Compound 12], the IC50 stood at 39.8 nM.
`CO[C@H]1C[C@@H](CO)OC[C@@H]1Nc1ncnc2[nH]cc(C(=O)c3ccc(Oc4ccccc4)cc3Cl)c12` [Compound 7] registered an IC50 of 43.6 nM.
Still for that read-out and setting: with `CO[C@@H]1C[C@@H](CO)OC[C@@H]1Nc1ncnc2[nH]cc(C(=O)c3ccc(Oc4ccccc4)cc3F)c12` [Compound 10] the figure was 14.9 nM; with `CO[C@@H]1C[C@@H](CO)OC[C@@H]1Nc1ncnc2[nH]cc(C(=O)c3ccc(Oc4ccccc4)cc3C)c12` [Compound 9], 15.2 nM.
For the compound `O=C(c1ccc(Oc2ccccc2)cc1Cl)c1c[nH]c2ncnc(N[C@H]3CO[C@H](CO)C4CC43)c12` (stereo partly shown) [Compound 1], the IC50 amounted to 1.7 nM.
Still for that read-out and setting: with `O=C(c1ccc(Oc2ccccc2)cc1Cl)c1c[nH]c2ncnc(N[C@H]3CO[C@H](CO)C[C@@H]3F)c12` [Compound 3] the figure was 6.7 nM.
The same measure, in the same setting: with `[2H]C([2H])([2H])O[C@@H]1C[C@@H](CO)OC[C@@H]1Nc1ncnc2[nH]cc(C(=O)c3ccc(Oc4ccccc4)cc3Cl)c12` [Compound 13] the figure was 15.1 nM.
`O=C(c1ccc(Oc2ccccc2)cc1Cl)c1c[nH]c2ncnc(N[C@H]3CO[C@H](CO)CC3(F)F)c12` [Compound 2] gave an IC50 of 12.5 nM.
Same read-out and setting: as for `N#CC[C@@H]1CC[C@@H](Nc2ncnc3[nH]cc(C(=O)c4ccc(Oc5ccccc5)cc4Cl)c23)CO1` [Compound 6], the figure is 6.5 nM.

The next test relates to TMD8 cells. The test can be described thus: BTK cell activity assay (CellTiter Glo). The conditions noted are these: Homo sapiens, Cell Titer Glo, read-out: Relative IC50. The format is cell-based. As to the method:
1. Cell Culture and Passage
The medium, trypsin and 1×PBS used in the cell passage process were preheated in a 37° C. water bath. The supernatant was aspirated.
1 mL of trypsin was added to rinse, and the rinse solution was aspirated. 1 mL of trypsin was added, respectively, and cells were digested at 37° C. until the cells fell off. 10 mL of culture medium was added and mixed well. The mixture was centrifuged at 1000 rpm for 5 min and the cells were resuspended in 10 mL of culture medium. 0.7 mL of cell suspension was pipetted into a counting cup and counted on ViCell XR to respectively obtain a cell density of 0.327 million/mL. 1.17 mL of cell suspension and culture medium were weighed, respectively, to dilute the cell suspension. According to the microplate layout diagram below, 100 μL of phosphate buffer was added to the peripheral wells of the 384-well microplate, and 40 μL of cell suspension was added to other wells, respectively. The cell plate was then cultured in an incubator.
2. Dosing • (1) Preparation of compound:
A 9 μL dilution of the compound to be assayed was added to a shallow-well plate for Pod (Labcyte, #LP-0200). The shallow-well plate was centrifuged at 2500 rpm for 30 s. • (2) The cell plate was removed from the incubator. • (3) According to the microplate layout diagram below, compounds were serially diluted 3-fold in Pod to obtain 10 concentrations. The diluted compounds were added to the cell plate at 100 nL, respectively, and then the cell plate was returned to the incubator for culture. • 3. At Day 0, 20 μL of CellTiter Glo was added to the plate with DMSO added, and the mixture was shaken in the dark for 10 minutes. The plate was read with Envision. • 4. At Day 5: CTG was added and the plate was read. • (1) After being cultured for 72 h, 20 μL of Cell Titer Glo was added to the cell plate, and the mixture was shaken in the dark for 10 minutes. • (2) The plate was read with Envision.
Assay Results • 1. Average value and standard deviation of 0% inhibition (DMSO well, MAX) and 100% inhibition (day 0, DMSO) in each group were calculated; • 2. […]
With `O=C(c1ccc(Oc2ccccc2)cc1Cl)c1c[nH]c2ncnc(N[C@H]3CO[C@H](CO)C[C@@H]3F)c12` [Compound 3], the IC50 amounted to 217 nM.
Consider `O=C(c1ccc(Oc2ccccc2)cc1Cl)c1c[nH]c2ncnc(N[C@H]3CO[C@H](CO)CC3(F)F)c12` [Compound 2], for which the IC50 came out at 269 nM.

For orientation: IC50 means the concentration needed to halve the response being measured.

These data come from patent US20230357248A1, “PYRROLOPYRIMIDINE COMPOUND AS BTK INHIBITOR AND USE THEREOF” (MEDSHINE DISCOVERY INC., priority 2019, published 2023).
